Holding throughout (assay): URAT1 uric acid transport activity assay
Type in all cases: cell-based

The target in assay [1] is T1, r-L18V rURAT1 point mutant (Rattus norvegicus, UniProt Q3ZAV1, L18V).
T1 sequence (Q3ZAV1 1-553 L18V): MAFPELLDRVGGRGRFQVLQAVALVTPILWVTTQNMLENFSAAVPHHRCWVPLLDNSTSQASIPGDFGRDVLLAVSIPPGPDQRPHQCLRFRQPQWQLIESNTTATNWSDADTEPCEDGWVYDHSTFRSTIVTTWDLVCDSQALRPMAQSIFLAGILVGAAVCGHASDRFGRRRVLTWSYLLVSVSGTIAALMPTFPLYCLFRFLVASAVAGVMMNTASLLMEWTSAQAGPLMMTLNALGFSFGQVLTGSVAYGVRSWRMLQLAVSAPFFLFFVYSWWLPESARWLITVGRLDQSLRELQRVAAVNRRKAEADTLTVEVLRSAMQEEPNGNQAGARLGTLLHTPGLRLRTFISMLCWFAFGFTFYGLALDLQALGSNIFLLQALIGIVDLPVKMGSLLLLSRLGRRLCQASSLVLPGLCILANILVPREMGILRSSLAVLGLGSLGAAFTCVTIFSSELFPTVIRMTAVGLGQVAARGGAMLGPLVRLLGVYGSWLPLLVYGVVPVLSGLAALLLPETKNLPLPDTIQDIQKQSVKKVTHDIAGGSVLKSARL
The method in brief:
(§1)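 Cells expressing site-directed rat URAT1 mutants were exposed to inhibitor dilutions for 5 minutes before radiolabelled uric acid (100 μM) was added for 10 minutes. Potency was derived by nonlinear regression of log inhibitor versus response.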

Assay [2] has as its target T2, r-N35S/Y365F/M481I rURAT1 triple point mutant (Rattus norvegicus, UniProt Q3ZAV1, M481I/N35S/Y365F).
T2 construct: hURAT1 and rURAT1 are 553 amino acid proteins with 12 transmembrane segments; expressed in transfected cells; host or cells: HEK-293T
T2 sequence (Q3ZAV1 1-553 N35S/Y365F/M481I): T1 sequence (Q3ZAV1 1-553 L18V) with V18L, N35S, Y365F, M481I
Summed up: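 Readout: 14C-uric acid uptake (100 μM, 10 min) in cells transiently transfected one day earlier with mutant rURAT1. Serially diluted inhibitors were added 5 min before substrate. Triplicate points, four-parameter logistic fit for IC50.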

In assay [3] the target is T3, r-V474M rURAT1 point mutant (Rattus norvegicus, UniProt Q3ZAV1, V474M).
T3 construct: expressed in transfected cells; host or cells: HEK-293T
T3 sequence (Q3ZAV1 1-553 V474M): T1 sequence (Q3ZAV1 1-553 L18V) with V18L, V474M
The method in brief: as §1

Numbering of substitutions follows the chain as printed. Like-named read-outs stand apart in the source and are kept apart here.

Turning to `CCc1oc2ccccc2c1C(=O)c1cc(Br)c(O)c(Br)c1` [benzbromarone], the IC50 (in general, the point on the concentration scale where inhibition reaches its midpoint) in assay [1] turned out to be 24 ± 3.1 µM; in assay [2], 0.61 ± 0.04 µM; in assay [3] it was 17 ± 2.2 µM.

On to `O=C(O)CSc1nnc(Br)n1-c1ccc(C2CC2)c2ccccc12` [lesinurad, 2-((5-bromo-4-(4-cyclopropylnaphthalen-1-yl)-4H-1,2,4-triazol-3-yl)thio)acetic acid], for which the IC50 is 78 ± 6.6 µM in assay [1] (r-L18V, MES pH 5.5, 100 μM 14C-uric acid, read-out: IC50 (uric acid transport)); 1.2 ± 0.14 µM in assay [2] (r-N35S/Y365F/M481I, MES pH 5.5, 100 μM 14C-uric acid, read-out: IC50 (uric acid transport)); 84 ± 3.2 µM in assay [3] (r-V474M, MES pH 5.5, 100 μM 14C-uric acid, read-out: IC50 (uric acid transport)).

Regarding `O=C1C(CC[S+]([O-])c2ccccc2)C(=O)N(c2ccccc2)N1c1ccccc1` (stereo not drawn) [sulfinpyrazone], the IC50 in assay [1] (r-L18V, HEPES pH 7.3, 100 μM 14C-uric acid, read-out: IC50 (uric acid transport)) came to 971 ± 89 µM; in assay [2] (r-N35S/Y365F/M481I, HEPES pH 7.3, 100 μM 14C-uric acid, read-out: IC50 (uric acid transport)), 49 ± 2.2 µM; in assay [3] (r-V474M, HEPES pH 7.3, 100 μM 14C-uric acid, read-out: IC50 (uric acid transport)) it was 732 ± 102 µM.
